Results published in patent US20260258000A1, “THYMIDYLATE SYNTHASE INHIBITORS AND USES THEREOF” (University of Florida Research Foundation, Incorporated, priority 2021, published 2026).
“Also recorded” adds a separate entry of the source.

Legend:
CM cells = assay: Cell viability (MTS) assay, CM; assay type: cell-based; details: 72 hour drug incubation (FIG. 1C)
BON cells = assay: Cell viability (MTS) assay, BON; assay type: cell-based; details: 72 hour drug incubation (FIG. 1C)
[1] = tested on: TS protein expression in PANC-1 cells; assay: Immunoblot analysis of TS expression in PANC-1 cells; assay type: cell-based; details: PANC-1 cells treated 72 hours (FIG. 1D)
Procedure: To prepare lysates, 0.5×10^6 PA NC-1 cells were seeded in 100 mm dishes in 10 ml DMEM High glucose and 24 hours later, 5-FU (Sigma) or 19-S were added at the specified concentrations. Cells were harvested after 72 hours and cell pellets were stored at −80° C. For GI50 determination, 3000 MIA PaCa-2 cells. […] After 72 hours, cell viability was assessed by reduction of MTS ((3-4,5-dimethylthiazol-2-yl)-5-(3-carboxymethoxyphenol)-2-(4-sulfophenyl)-2H-tetrazolium) using Cell Titer 96 R Aqueous One Solution Cell Proliferation Assay Kit (Promega), following manufacturer's recommendations. Chemiluminescent output (integration time 1000 ms) was measured on a SpectraMax M3® (Molecular devices). […]
Protein lysates were generated using RIPA buffer (Santa Cruz) for 20 minutes on ice, followed by 15 minutes centrifugation at 13,000 rpm, at 4° C. […] Protein was quantified using Bradford Assay (BioRad) following manufacturer's recommendations, standard curves were generated with bovine serum albumin (Fisher).
20 μg of total protein lysate was loaded per lane of 10% Tris Glycine Gel (Invitrogen). […] Signal was detected using West Pico Plus chemiluminescent substrate (Thermo Scientific) following manufacturer's recommendations. […] For protein level quantification relative to loading control, densitometric analysis was performed by ImageJ software.

[2] = target: T1, human thymidylate synthase (hTS) (Homo sapiens, UniProt P04818); assay: Tritium based TS catalytic activity assay; assay type: biochemical; details: for inhibition of TS catalytic activity, 19-S series library screen: 250 uM (FIG. 4A); for TS inhibition at decreasing drug concentrations: compared with Pem and MTX controls (FIG. 4C); for TS activity (conversion of dUMP): drug 250 μM, 10 μg/mL bacterially expressed TS protein (FIG. 1B)
T1 construct: 6xHis (N); made in house; host or cells: E. coli BL21 (DE3)
T1 sequence (P04818 whole entry): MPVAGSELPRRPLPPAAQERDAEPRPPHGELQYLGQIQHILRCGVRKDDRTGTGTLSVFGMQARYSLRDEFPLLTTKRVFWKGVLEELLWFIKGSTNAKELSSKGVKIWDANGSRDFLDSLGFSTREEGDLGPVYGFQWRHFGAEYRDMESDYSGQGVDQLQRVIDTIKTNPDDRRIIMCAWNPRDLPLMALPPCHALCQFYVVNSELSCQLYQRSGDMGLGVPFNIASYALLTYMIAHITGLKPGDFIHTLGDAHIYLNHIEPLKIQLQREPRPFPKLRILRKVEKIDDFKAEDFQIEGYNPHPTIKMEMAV
Procedure: The catalytic activity of TS was determined by measuring the release of [31] from [5-3H]dUMP (ViTrax, VT122) resulting from the conversion of dUMP to dTMP as previously described12,33. […] Reactions were performed in 50 mM KH2PO4 (Sigma Aldrich, P0662) at pH 7.2 using 2 μg of purified human TS. Reactions were performed in a final volume of 200 μL with 100 mM β-mercaptoethanol (Sigma Aldrich, M7522), 40 μM dUMP (Sigma Aldrich, D3876), 100 μM 5,10-mTHF, and the [5-3H]dUMP tracer (ViTrax, VT122) accounting for 0.06% of the final dUMP concentration in the reaction. […] Reactions were initiated by the addition of the dUMP substrate and 5,10-mTHF cofactor, then incubated at 37° C. for 30 minutes. […] Reactions were terminated by the addition of 100 μL of ice-cold 20% trichloroacetic acid (Sigma Aldrich, T6399), then excess [5-31-]dUMP was removed by the addition of 200 μL of an albumin-coated activated charcoal solution. The albumin-coated activated charcoal solution was prepared by mixing 10 g of acid-washed activated dextran coated charcoal (Sigma Aldrich, C6241) with 2.5 g of bovine albumin (Sigma Aldrich, A1933) in 100 mL of H2O. The suspension was incubated at room temperature for 30 minutes and then centrifuged for 30 minutes at 10,000×g. […] For all experiments, positive control reactions were performed with no drug representing 100% TS activity, and negative control reactions were performed with no TS enzyme or no 5,10-mTHF substrate representing 0% TS activity. All assays were performed in biological duplicate and technical duplicate. Results were analyzed using GraphPad Prism 8.

MIA PaCa-2 cells = assay: Cell viability (MTS) assay, MIA PaCa-2; assay type: cell-based; details: Homo sapiens; MIA PaCa-2, 72-hour treatment, highest concentration 350 μM (FIG. 4E)
Procedure: To prepare lysates, 0.5×10^6 PA NC-1 cells were seeded in 100 mm dishes in 10 ml DMEM High glucose and 24 hours later, 5-FU (Sigma) or 19-S were added at the specified concentrations. Cells were harvested after 72 hours and cell pellets were stored at −80° C. For GI50 determination, 3000 MIA PaCa-2 cells. […] After 72 hours, cell viability was assessed by reduction of MTS ((3-4,5-dimethylthiazol-2-yl)-5-(3-carboxymethoxyphenol)-2-(4-sulfophenyl)-2H-tetrazolium) using Cell Titer 96 R Aqueous One Solution Cell Proliferation Assay Kit (Promega), following manufacturer's recommendations. Chemiluminescent output (integration time 1000 ms) was measured on a SpectraMax M3® (Molecular devices). Data were normalized to max/minutes and plotted in GraphPad Prism for GI50 determination. Chemical synthesis details, including characterization of each compound, can be found in the supporting information document associated with this publication.

DHFR = target: T2, DHFR (Homo sapiens, UniProt P00374); assay: Absorbance-based DHFR activity assay; assay type: biochemical; details: for DHFR inhibition at reduced inhibitor concentrations: compared with Pem and MTX controls (FIG. 4D)
T2 construct: purchased Sigma D6566
T2 sequence (P00374 1-187): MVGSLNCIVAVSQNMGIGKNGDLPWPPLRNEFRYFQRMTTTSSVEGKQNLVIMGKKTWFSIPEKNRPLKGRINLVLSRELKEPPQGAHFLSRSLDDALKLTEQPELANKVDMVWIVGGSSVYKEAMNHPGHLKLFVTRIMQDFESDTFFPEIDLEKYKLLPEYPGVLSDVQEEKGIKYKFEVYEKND
Procedure: 6 μL NADPH solution and 5 μL of dihydrofolic acid (DHFR substrate) (Sigma, D7006).

human TS = target: T3, human TS (Homo sapiens, UniProt P04818); assay: Competitive drug displacement assay (tritium TS assay); assay type: biochemical; details: TS pre-incubated with drug; for dUMP conversion with increasing 5,10-mTHF concentration (drug displacement): 5,10-mTHF up to 5×; for dUMP conversion with increasing dUMP concentration (drug displacement): dUMP up to 5×
T3 construct: 6xHis (N); made in house; host or cells: E. coli BL21 (DE3)
T3 sequence (P04818 whole entry): as the sequence (P04818 whole entry) above
Procedure: For these experiments the TS protein was first incubated with each drug, the reaction was then initiated by addition of 5,10-mTHF and dUMP using different concentrations of either 5,10-mTHF or dUMP to change the substrate:drug ratio. If there was competition between one of the substrates and the drug for the same binding site, increasing the substrate concentration will displace more of the pre-bound drug and shift the equilibrium towards the enzyme: substrate complex, thus allowing the conversion of dUMP to proceed (FIG. 5A).
The competitive drug displacement assay utilized the standard reaction conditions for the tritium based TS catalytic activity assay including 40 μM dUMP (Sigma Aldrich, D3876) with the [5-3H]dUMP tracer (ViTrax, VT122) accounting for 0.06% of the final dUMP concentration and 100 μM 5,10-methylene tetrahydrofolate (defined as 1× dUMP and 1×5,10-mTHF). Concentrations of total dUMP and 5,10-mTHF were then changed relative to these 1× concentrations to concisely indicate the changes in either the substrate or cofactor concentration. […] The remaining components in each 200 μL reaction were consistent in all reactions and included 2 μg of purified human TS in 50 mM KH2PO4 (Sigma Aldrich, P0662) and 100 mM β-mercaptoethanol (Sigma Aldrich, M7522).

[3] = tested on: Luc-PANC-1 xenograft tumors; assay: Luc-PANC-1 subcutaneous xenograft tumor model; assay type: in vivo, NSG mice; details: 25 mg/kg oral gavage
Procedure: Luc-PANC-1 (5×106) and Luc-CM (0.5×106) cells were resuspended in 200 ul of PBS and injected subcutaneously (SQ) or intraperitonially (IP) to 6-8-week-old NSG mice respectively. Tumor bearing mice were imaged using Xenogen IVIS® Lumina Bioluminescence Imaging System (Perkin Elmer) every week after cell injection. At 4 weeks, animals were randomized based on slope of luciferase signal and treatment was initiated. […] For all animals body weight was recorded weekly and Luc-PANC-1 tumor volume was measured weekly with a caliper. For scheduled sacrifice experiments, animals were euthanized after 4 weeks of treatment. […] Harvested tumors were excised and weighted, and fixed in alcoholic formalin (67.5% Ethanol, 10% Formaldehyde 37%, 22.5% water) for pathology analysis. Tumor volume was calculated as [volume=0.52 (length×width2)].
From this stock, the exact volume needed for daily in vivo delivery was then formulated into 95% corn oil (Mazola) at 2 different concentrations: 1.25 mg/mi (formulation 1) and 3.125 mg/ml (formulation 2). To determine the volume of solution administered to the mice, 200 μl (maximum volume to be delivered in mice via IP or oral gavage) was divided by 25 g of mouse body weight. Therefore, 8 μl of formulation 1 or 2 multiplied by the weight of the mice were used to reach a dose of 10 or 25 mg/kg of body weight, respectively.
Prior to bioluminescence imaging the region where tumors were located was shaved. Mice were then anesthetized with 2.5% isoflurane in 02 then administered the D-luciferin substrate (150 mg/kg in PBS) by IP injection. Following the injection of the D-luciferin substrate mice were imaged using the Xenogen IVIS® Lumina Bioluminescence Imaging System (Perkin Elmer). The peak of luciferase photon flux was recorded 6 minutes after injection of the D-luciferin substrate. The total photon flux was analyzed and restricted to tumor ROI (region of interest) using Living Image v2.60.1 software (Imaging Systems).

[4] = Maximum tolerated dose (MTD) study; assay type: in vivo
Text: After 3 treatment cycles, animals rested (no treatment) for one more week before euthanasia. Body weight and physical status of all mice were closely monitored. Tissues were collected and fixed in alcoholic formalin to test for toxicity.

O=c1[nH]cc(F)c(=O)[nH]1 [Compound 5-FU, 5-fluorouracil, reference compound]
GI50 (CM cells): 14.8 µM | IC50 (BON cells): 7.1 µM | TS protein expression (steady-state TS levels) [1]: induced TS expression

CCc1nc(N)nc(N)c1-c1ccc(N(C)Cc2ccc(OC)cc2)c([N+](=O)[O-])c1 [Compound 19-S5]
inhibition of TS catalytic activity, 19-S series library screen [2]: inhibited TS activity | TS inhibition at decreasing drug concentrations ([2]; listed as 19-55): greater TS inhibition than both MTX and Pen | TS inhibition at decreasing drug concentrations ([2]; listed as 19-85): both strong TS and DHFR inhibition | GI50 (MIA PaCa-2 cells): 0.2 to 0.84 µM | DHFR inhibition at reduced inhibitor concentrations (DHFR): both strong TS and DHFR inhibition | dUMP conversion with increasing 5,10-mTHF concentration (drug displacement) (human TS): increased the amount of dUMP conversion | dUMP conversion with increasing dUMP concentration (drug displacement) (human TS): the amount of dUMP conversion did not increase

CCc1nc(N)nc(N)c1-c1ccc(N(C)Cc2ccc3c(c2)OCO3)c([N+](=O)[O-])c1 [Compound 19-S7]
inhibition of TS catalytic activity, 19-S series library screen [2]: inhibited TS activity | TS inhibition at decreasing drug concentrations [2]: greater TS inhibition than both MTX and Pen; also recorded: both strong TS and DHFR inhibition | GI50 (MIA PaCa-2 cells): 0.2 to 0.84 µM | adverse effects / body weight ([3]; 4 cycles): did not show adverse effects or declines in body weight | tumor progression (photon flux, tumor volume, excised tumor mass) ([3]; 4 cycles (FIGS. 7A-7H)): inhibited tumor progression | mortality ([4]; 50 mg/kg PO, n=3 (FIG. 16B)): found dead after 12th (n=1) and 15th (n=2) dose | MTD ([4]; PO, NSG mice (FIGS. 16A-16B)): 25 mg/kg | DHFR inhibition at reduced inhibitor concentrations (DHFR): both strong TS and DHFR inhibition | dUMP conversion with increasing 5,10-mTHF concentration (drug displacement) (human TS): increased the amount of dUMP conversion | dUMP conversion with increasing dUMP concentration (drug displacement) (human TS): the amount of dUMP conversion did not increase

CCc1nc(N)nc(N)c1-c1ccc(NCCOCCOCCN)c([N+](=O)[O-])c1 [Compound 19-S10]
inhibition of DHFR activity, 19-S series library screen (DHFR; 1 μM (FIG. 4B)): exception

O=c1[nH]c(=O)n([C@@H]2O[C@H](CO)[C@@H](O)[C@H]2O)cc1F [FUrd, 5-fluorouridine, reference compound]
TS activity (conversion of dUMP) [2]: inactive

O=c1[nH]c(=O)n([C@H]2C[C@H](O)[C@@H](CO)O2)cc1F [FdUrd, 5-fluoro-2′-deoxyuridine, reference compound]
TS activity (conversion of dUMP) [2]: reduced conversion of dUMP | dUMP conversion with increasing dUMP concentration (drug displacement) (human TS): did not show drug displacement

CN(Cc1cnc2nc(N)nc(N)c2n1)c1ccc(C(=O)N[C@@H](CCC(=O)O)C(=O)O)cc1 [MTX, methotrexate, reference compound]
GI50 (MIA PaCa-2 cells): > 350 µM

Nc1nc2[nH]cc(CCc3ccc(C(=O)N[C@@H](CCC(=O)O)C(=O)O)cc3)c2c(=O)[nH]1 [Pem, pemetrexed, reference compound]
TS inhibition at decreasing drug concentrations [2]: greater TS inhibition than the MTX antifolate | GI50 (MIA PaCa-2 cells): > 350 µM | DHFR inhibition at reduced inhibitor concentrations (DHFR): less effective against DHFR | dUMP conversion with increasing 5,10-mTHF concentration (drug displacement) (human TS): increased the dUMP conversion | dUMP conversion with increasing dUMP concentration (drug displacement) (human TS): did not increase dUMP conversion
